# Assay results from US7632972B2, “Compounds and methods for treatment of cancer and modulation of programmed cell death for melanoma and other cancer cells” (The Board of Trustees of the University of Illionis, priority 2003, dated 2009).
# Read-outs that look alike come from different tables or passages of the source.
# What was measured:
# UACC-62 = experiment: Death induction in melanoma cell line; assay type: cell-based, human
# Description: (§1) Given the interesting and somewhat unusual trait of G1 arrest, compounds x and y were tested for their ability to induce death in two melanoma cell lines: UACC-62 (human), and B16-F10 (mouse). […] Compounds x and y were also submitted for testing in the NCl 60-cell line assay. […] The triphenylamides (TPAs) induce apoptosis in these melanoma cell lines.
# B16-F10 = experiment: Death induction in melanoma cell line; assay type: cell-based, mouse
# Description: as §1
# U-937 cell line = experiment: Death induction by amide library, MTS dye reduction; assay type: cell-based, human
# Description: Compounds were tested in a U937 cell assay as previously described by Hergenrother et al. (see Hergenrother 2003 and U.S. 60/516,566).
# The ability of the 100 amides thus produced to induce death in cancer cells was assessed by an assay based on the reduction of the MTS (3-(4,5-dimethylthiazol-2-yl)-5-(3-carboxymethoxyphenyl)-2-(4-sulfophenyl)-2H-tetrazolium, inner salt) dye. This tetrazolium dye is rapidly converted to the formazan product by living cells, and therefore provides a sensitive readout of cell life or death that can be monitored at 490 nm.
# U-937 cells [1] = experiment: cells; assay type: cell-based, human; conditions: Homo sapiens; Table 13, U-937
# human bone marrow cells = experiment: Toxicity to bone marrow cells of a healthy donor, MTS bioreduction after 72 hours; assay type: cell-based; conditions: Bone marrow cell, Table 13, bone marrow cells of healthy donor
# From the text: Specificity for cancer cells. The vast majority of anti-cancer drugs are toxic to all rapidly dividing cell types, often leading to deleterious side effects and a reduced therapeutic window. For instance, hematopoietic bone marrow is responsible for the production of red and white blood cells, and the anemia observed upon treatment with certain chemotherapy agents is in a large part due to the toxicity of the anti-cancer drugs on cells in the human bone marrow. Thus, to determine the relative effect of the triphenylamides on melanoma versus normal cells, cells derived from the human bone marrow of a healthy donor were used; measurement of the effect on healthy bone marrow cells can assist in assessing the toxicity of putative anti-cancer agents. (17-20) These cells were treated with increasing concentrations of the compounds shown in Table 13, and cell viability was evaluated after 72 hours using the MTS bioreduction assay. The data in Table 13 indicate that several of the triphenyl amides have selective toxicity to melanoma cells versus the human bone marrow cells.
# HL-60 cells = experiment: Determination of IC50 values, cell death by MTS/PMS after 72 h; conditions: Homo sapiens, HL-60, read-out: HL-60
# Description: General Cell Culture Conditions: U-937 and HL-60 cell lines were grown in RPMI 1640 supplemented with 10% FBS and incubated at 37° C. in a 5% CO2, 95% air atmosphere and were split every two to three days as necessary.
# Cells were then resuspended in RPMI 1640+10% FBS, counted using a hemocytometer and diluted so that 10,000 cells were seeded in to each well of a Corning 96-well flat bottom microtiter plate (Fisher, Chicago Ill.). Media was then added to bring the total volume of each well to 100 μL. Each compound was weighed and then diluted with EtOH to make a 100 mM stock solution. The compounds were added at 9 or more different concentration in 1 μL of EtOH. After a 72 h incubation (37° C. in a 5% CO2, 95% air atmosphere) cell death was quantitated by addition of 20 μL of the MTS/PMS CellTiter 96 Cell Proliferation Assay reagent (Promega, Madison Wis.) to each well. The plates were incubated at 37° C. for approximately 1 hour until the colored product formed and the absorbance was then measured at 490 nm in a Spectra Max Plus 384 plate reader (Molecular Devices, Sunnyvale Calif.). The IC50 was taken as the concentration that caused 50% cell death.
# U-937 cells [2] = experiment: High-throughput cell death assay on library members (MTS/PMS); assay type: cell-based, human; conditions: library members at 100 μM, 24 hours
# Description: A three-tiered system was devised to identify compounds that selectively induce apoptosis in cancer cells. First, all compounds were screened at 100 μM in a high-throughput manner for their ability to induce death in two cancer cell lines, HL-60 (leukemia) and U-937 (lymphoma).
# Test compounds were transferred into the wells using a 96-pin transfer apparatus (V & P Scientific, San Diego Calif.) that transfers 0.2 μL of compound. The compounds were made up as 50 mM stock solutions in 100% EtOH, so one transfer gave a final concentration of 100 μM. Controls were performed in which only EtOH (containing no compound) was pin-transferred into wells containing cells. The cells were incubated with the compounds for 24 hours, and then cell death was quantitated.
# [3] = Homo sapiens, Table 13, UACC-62 melanoma, read-out: UACC-62
# [4] = Mus musculus, B16-F10, Table 13, B16F10 melanoma, read-out: B16F10
# [5] = hit compounds of first generation library, read-out: IC50 Value-U-937 cells
# [6] = UACC-62, human melanoma cell line, read-out: IC50, UACC-62
# [7] = B16-F10, mouse melanoma cell line, read-out: IC50, BF16-F10
# [8] = Homo sapiens, U-937, hit compounds of first generation library, read-out: IC50 Value-U-937 cells
smiles,measurement,setting,value
COc1cc([C@@H]2c3cc4c(cc3[C@@H](O[C@@H]3O[C@@H]5CO[C@@H](C)O[C@H]5[C@H](O)[C@H]3O)[C@H]3COC(=O)[C@H]23)OCO4)cc(OC)c1O [Etoposide],IC50,UACC-62; [3],> 100000 nM
same,IC50,B16-F10; [4],> 100000 nM
CCCCCCCCCCCCCCCC(=O)N(C)C(C)C(O)c1ccccc1 (centres unmarked),IC50,"U-937 cell line; Homo sapiens, U-937, read-out: IC50 Value-U-937 cells",3100 nM
O=C(NC12CC3CC(CC(C3)C1)C2)C(c1ccccc1)(c1ccccc1)c1ccccc1 [drawing 78],IC50,U-937 cells [1],480 nM
same,IC50,UACC-62; [3],2410 nM
same,IC50,B16-F10; [4],15700 nM
same,IC50,human bone marrow cells,590 nM
same,IC50,HL-60 cells,850 nM
"O=C(NCCc1ccccc1)C(c1ccccc1)(c1ccccc1)c1ccccc1 [drawing 68, R = H]",IC50,U-937 cell line; [5],8000 nM
"COc1ccc(CCNC(=O)CC(c2ccccc2)(c2ccccc2)c2ccccc2)cc1OC [drawing 69, R1 = H, R2 = OCH3, R3 = OCH3]",IC50,U-937 cell line; [5],18300 nM
"COc1ccccc1CCNC(=O)CC(c1ccccc1)(c1ccccc1)c1ccccc1 [drawing 69, R1 = OCH3, R2 = H, R3 = H]",IC50,U-937 cell line; [5],15700 nM
O=C(NC1CCCc2ccccc21)C(c1ccccc1)(c1ccccc1)c1ccccc1 (centres unmarked),IC50,U-937 cells [1],1250 nM
same,IC50,UACC-62; [3],1770 nM
same,IC50,B16-F10; [4],980 nM
same,IC50,human bone marrow cells,500 nM
same,IC50,HL-60 cells,2210 nM
C[C@]12C=CC(=O)C=C1CC[C@@H]1[C@@H]2C(=O)C[C@@]2(C)[C@H]1CC[C@]2(O)C(=O)CO [Prednisone],IC50,UACC-62; [3],> 100000 nM
same,IC50,B16-F10; [4],> 100000 nM
COc1ccc(CNC(=O)C(c2ccccc2)(c2ccccc2)c2ccccc2)cc1,IC50,U-937 cells [1],8160 nM
same,IC50,UACC-62; [3],690 nM
same,IC50,B16-F10; [4],600 nM
same,IC50,human bone marrow cells,4770 nM
same,IC50,HL-60 cells,10500 nM
COc1cc(/C=C/C(=O)NCCc2ccc(O)cc2)cc(OC)c1OC [Compound 17-F],Induction of death in U-937 cells (percentages of cell death),U-937 cells [2],9%
COc1ccc(/C=C/C(=O)NCCc2ccc(O)cc2)cc1O [Compound 17-E],Induction of death in U-937 cells (percentages of cell death),U-937 cells [2],18%
COc1cc(/C=C/C(=O)NC[C@@H](O)c2ccccc2)cc(OC)c1OC [Compound 12-F],Induction of death in U-937 cells (percentages of cell death),U-937 cells [2],33%
COc1cccc(/C=C/C(=O)NC[C@@H](OC)c2ccc(O)cc2)c1 [Compound 9-H],Induction of death in U-937 cells (percentages of cell death),U-937 cells [2],38%
COc1ccc(/C=C/C(=O)NC[C@@H](O)c2ccccc2)cc1O [Compound 12-E],Induction of death in U-937 cells (percentages of cell death),U-937 cells [2],28%
COc1cccc(CCNC(=O)CC(c2ccccc2)(c2ccccc2)c2ccccc2)c1 [drawing 74],IC50,UACC-62; [6],1340 nM
same,IC50,B16-F10; [7],850 nM
COc1ccc(/C=C/C(=O)NCCc2ccccc2)cc1O [Compound 16-E],Induction of death in U-937 cells (percentages of cell death),U-937 cells [2],60%
O=C(/C=C/c1ccccc1)NC[C@H](O)c1ccc(O)cc1 [Compound 15-A],Induction of death in U-937 cells (percentages of cell death),U-937 cells [2],27%
CO[C@@H](CNC(=O)/C=C/c1ccc(O)c(O)c1)c1ccc(O)cc1 [Compound 11-C],Induction of death in U-937 cells (percentages of cell death),U-937 cells [2],−9%
O=C(/C=C/c1ccc(O)cc1)NC[C@@H](O)c1ccccc1 [Compound 12-B],Induction of death in U-937 cells (percentages of cell death),U-937 cells [2],47%
O=C(/C=C/c1ccc(O)cc1)NCCc1ccc(O)cc1 [Compound 17-B],Induction of death in U-937 cells (percentages of cell death),U-937 cells [2],32%
COc1cc(/C=C/C(=O)NC[C@@H](OC)c2ccccc2)cc(OC)c1OC [Compound 8-F],Induction of death in U-937 cells (percentages of cell death),U-937 cells [2],31%
COc1ccc(CCNC(=O)/C=C/c2ccc(O)c(OC)c2)cc1 [Compound 18-D],Induction of death in U-937 cells (percentages of cell death),U-937 cells [2],66%
COc1ccc(/C=C/C(=O)NC[C@H](O)c2ccc(O)cc2)cc1O [Compound 15-E],Induction of death in U-937 cells (percentages of cell death),U-937 cells [2],22%
O=C(CC(c1ccccc1)(c1ccccc1)c1ccccc1)NCCc1cccnc1,IC50,U-937 cells [1],930 nM
same,IC50,UACC-62; [3],700 nM
same,IC50,B16-F10; [4],1610 nM
same,IC50,human bone marrow cells,680 nM
same,IC50,HL-60 cells,1390 nM
COc1cc(/C=C/C(=O)NCCc2ccccc2)cc(OC)c1OC [Compound 16-F],Induction of death in U-937 cells (percentages of cell death),U-937 cells [2],30%
CO[C@H](CNC(=O)/C=C/c1ccc(O)cc1)c1ccc(O)cc1 [Compound 9-B],Induction of death in U-937 cells (percentages of cell death),U-937 cells [2],20%
COc1cc(/C=C/C(=O)NC[C@@H](OC)c2ccccc2)ccc1O [Compound 8-D],Induction of death in U-937 cells (percentages of cell death),U-937 cells [2],20%
O=C(NC1C2CC3CC(C2)CC1C3)C(c1ccccc1)(c1ccccc1)c1ccccc1 (centres unmarked),IC50,U-937 cells [1],490 nM
same,IC50,UACC-62; [3],15300 nM
same,IC50,B16-F10; [4],7410 nM
same,IC50,human bone marrow cells,320 nM
same,IC50,HL-60 cells,920 nM
COc1cccc(/C=C/C(=O)Nc2cc(OC)c(OC)c(OC)c2)c1,IC50,U-937 cell line; [8],8000 nM
COc1ccc(CNC(=O)CC(c2ccccc2)(c2ccccc2)c2ccccc2)c(OC)c1,IC50,U-937 cells [1],7170 nM
same,IC50,UACC-62; [3],520 nM
same,IC50,B16-F10; [4],550 nM
same,IC50,human bone marrow cells,1870 nM
same,IC50,HL-60 cells,2260 nM
CC(=O)OC(CNC(=O)C(c1ccccc1)(c1ccccc1)c1ccccc1)c1ccccc1 (centres unmarked),IC50,U-937 cells [1],10800 nM
same,IC50,UACC-62; [3],620 nM
same,IC50,B16-F10; [4],800 nM
same,IC50,human bone marrow cells,4000 nM
same,IC50,HL-60 cells,16200 nM
COc1ccc([C@H](O)CNC(=O)/C=C/c2cccc(OC)c2)cc1 [Compound 14-H],Induction of death in U-937 cells (percentages of cell death),U-937 cells [2],38%
O=C(/C=C/c1ccccc1)NC[C@@H](O)c1ccccc1 [Compound 12-A],Induction of death in U-937 cells (percentages of cell death),U-937 cells [2],26%
O=P1(N(CCCl)CCCl)NCCCO1 (centres unmarked) [Cyclophosphamide],IC50,"UACC-62; Homo sapiens, UACC-62, read-out: UACC-62",> 100000 nM
same,IC50,"B16-F10; Mus musculus, B16-F10, read-out: B16F10",> 100000 nM
CO[C@@H](CNC(=O)/C=C/c1ccc(O)cc1)c1ccc(O)cc1 [Compound 11-B],Induction of death in U-937 cells (percentages of cell death),U-937 cells [2],60%
COc1ccc(/C=C/C(=O)NC23CC4CC(CC(C4)C2)C3)c2ccccc12,IC50,U-937 cell line; [8],7100 nM
COc1ccc([C@@H](CNC(=O)/C=C/c2ccccc2)OC)cc1 [Compound 10-A],Induction of death in U-937 cells (percentages of cell death),U-937 cells [2],51%
O=C(/C=C/c1ccc(O)c(O)c1)NCCc1ccccc1 [Compound 16-C],Induction of death in U-937 cells (percentages of cell death),U-937 cells [2],24%
COc1cc(/C=C/C(=O)NC[C@H](O)c2ccc(O)cc2)cc(OC)c1O [Compound 15-G],Induction of death in U-937 cells (percentages of cell death),U-937 cells [2],47%
O=C(/C=C/c1ccc(O)c(O)c1)NC[C@@H](O)c1ccccc1 [Compound 12-C],Induction of death in U-937 cells (percentages of cell death),U-937 cells [2],27%
COc1ccc(CCNC(=O)/C=C/c2ccccc2)cc1 [Compound 18-A],Induction of death in U-937 cells (percentages of cell death),U-937 cells [2],56%
COc1ccc(CCNC(=O)/C=C/c2ccc(OC)c(O)c2)cc1 [Compound 18-E],Induction of death in U-937 cells (percentages of cell death),U-937 cells [2],73%
COc1ccc([C@H](O)CNC(=O)/C=C/c2ccc(O)c(O)c2)cc1 [Compound 14-C],Induction of death in U-937 cells (percentages of cell death),U-937 cells [2],−15%
O=C(/C=C/c1ccccc1)NCCc1ccccc1 [Compound 16-A],Induction of death in U-937 cells (percentages of cell death),U-937 cells [2],58%
O=C(/C=C/c1ccc(O)cc1)NC[C@H](O)c1ccc(O)cc1 [Compound 15-B],Induction of death in U-937 cells (percentages of cell death),U-937 cells [2],39%
O=C(NCCc1ccccc1)C(c1ccccc1)(c1ccccc1)c1ccccc1 [drawing 73],IC50,UACC-62; [6],490 nM
same,IC50,B16-F10; [7],420 nM
O=C(NC12CC3CC(CC(C3)C1)C2)C(c1ccccc1)(c1ccccc1)c1ccccc1 [drawing 75],IC50,UACC-62; [6],2400 nM
same,IC50,B16-F10; [7],15600 nM
COc1ccc(CCNC(=O)/C=C/c2ccc(O)cc2)cc1 [Compound 18-B],Induction of death in U-937 cells (percentages of cell death),U-937 cells [2],17%
COc1cc(/C=C/C(=O)NC[C@@H](O)c2ccc(O)cc2)cc(OC)c1OC [Compound 13-F],Induction of death in U-937 cells (percentages of cell death),U-937 cells [2],22%
